Each structure is given as a SMILES string.

T1 sequence (Q01718 whole entry): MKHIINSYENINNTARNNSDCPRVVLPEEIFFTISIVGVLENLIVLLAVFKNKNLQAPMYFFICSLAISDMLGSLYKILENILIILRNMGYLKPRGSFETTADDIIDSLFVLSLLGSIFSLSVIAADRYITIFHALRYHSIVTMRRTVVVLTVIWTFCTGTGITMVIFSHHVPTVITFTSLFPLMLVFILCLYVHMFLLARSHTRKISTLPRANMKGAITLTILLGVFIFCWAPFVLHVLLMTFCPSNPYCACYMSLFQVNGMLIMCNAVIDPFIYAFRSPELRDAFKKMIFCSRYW
T1 sequence (Q8TCY5 whole entry partner): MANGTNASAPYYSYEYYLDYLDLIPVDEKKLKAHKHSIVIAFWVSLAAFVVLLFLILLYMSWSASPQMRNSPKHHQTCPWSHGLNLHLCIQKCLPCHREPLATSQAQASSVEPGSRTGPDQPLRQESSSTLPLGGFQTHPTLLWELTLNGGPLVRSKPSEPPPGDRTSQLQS

This assay concerns the target T1, hMC2 receptor (crude hMC2R membranes from CRE-bla-CHO-K1 cells stably expressing hMC2 receptor and hMRAP accessory protein) (Homo sapiens, UniProt Q01718).
T1 construct: crude membrane fractions
Put plainly: hMC2 membrane binding assay ([125I]ACTH (1-39) Tyr23, SPA). As to conditions: displacement of 0.2 nM [125I]ACTH (1-39) Tyr23 from hMC2R membranes, 1.5 hours at room temperature; read-out: MC2R binding potency. The method, boiled down: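 Crude membranes from CRE-bla-CHO-K1 cells stably co-expressing hMC2R and hMRAP, premixed with WGA PVT SPA beads in pH 7.4 HEPES buffer (5 mM MgCl2, 1 mM CaCl2, 0.20% BSA, protease inhibitors). Compounds compete with [125I]ACTH(1-39) Tyr23, read by scintillation. Ki from non-linear regression.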
As for `CCOc1ncccc1-c1ccc(C2(C(=O)N[C@H]3CCNC3)CCN(c3ccc(C(F)(F)F)cc3C#N)CC2)cn1` [Compound 1-12, 1-[2-cyano-4-(trifluoromethyl)phenyl]-4-{2′-ethoxy-[2,3′-bipyridin]-5-yl}-N-[(3S)-pyrrolidin-3-yl]piperidine-4-carboxamide], the Ki is < 10 nM.
In the case of `CN1CC(F)(F)C[C@@H]1CNC(=O)C1(c2ccc(-c3cccn3C)nc2)CCN(c2ccc(C(F)(F)F)cc2C#N)CC1` [Compound 1-280, 1-[2-cyano-4-(trifluoromethyl)phenyl]-N-{[(2R)-4,4-difluoro-1-methylpyrrolidin-2-yl]methyl}-4-[6-(1-methyl-1H-pyrrol-2-yl)pyridin-3-yl]piperidine-4-carboxamide] it was 100 to 1000 nM; in that of `CN1CC[C@@H](NC(=O)C2(c3ccc(-c4ccccc4CC#N)nc3)CCN(c3ccc(C(F)(F)F)cc3C#N)CC2)C1` [Compound 1-137, 1-[2-cyano-4-(trifluoromethyl)phenyl]-4-{6-[2-(cyanomethyl)phenyl]pyridin-3-yl}-N-[(3R)-1-methylpyrrolidin-3-yl]piperidine-4-carboxamide], 10 to 100 nM; in that of `CN1CC[C@@H](NC(=O)C2(c3ccc(-c4ccccc4OC4CC4)nc3)CCN(c3ccc(C(F)(F)F)cc3C#N)CC2)C1` [Compound 1-89, 1-[2-cyano-4-(trifluoromethyl)phenyl]-4-[6-(2-cyclopropoxyphenyl)pyridin-3-yl]-N-[(3R)-1-methylpyrrolidin-3-yl]piperidine-4-carboxamide], < 10 nM.
The result for `CCOc1ncccc1-c1ccc(C2(OCCN(C)C)CCN(c3ccc(C(F)(F)F)cc3C#N)CC2)cc1` [Compound 2-1, 2-{4-[2-(dimethylamino)ethoxy]-4-[4-(2-ethoxypyridin-3-yl)phenyl]piperidin-1-yl}-5-(trifluoromethyl)benzonitrile] reads 10 to 100 nM.
The result for `COc1ccccc1-c1ccc(C2(C(=O)NCC3CN(C)C3)CCN(c3ccc(C(F)(F)F)cc3C#N)CC2)cn1` [Compound 1-211, 1-[2-cyano-4-(trifluoromethyl)phenyl]-4-[6-(2-methoxyphenyl)pyridin-3-yl]-N-[(1-methylazetidin-3-yl)methyl]piperidine-4-carboxamide] reads < 10 nM; that for `CN(C)CCNC(=O)C1(c2ccc(-c3cccn3C)nc2)CCN(c2ccc(C(F)(F)F)cc2Cl)CC1` [Compound 1-282, 1-[2-chloro-4-(trifluoromethyl)phenyl]-N-[2-(dimethylamino)ethyl]-4-[6-(1-methyl-1H-pyrrol-2-yl)pyridin-3-yl]piperidine-4-carboxamide], < 10 nM; that for `COc1ccccc1-c1ncc(C2(C(=O)NCCN(C)C)CCN(c3ccc(C(F)(F)F)cc3F)CC2)cc1F` [Compound 1-285, N-[2-(dimethylamino)ethyl]-1-[2-fluoro-4-(trifluoromethyl)phenyl]-4-[5-fluoro-6-(2-methoxyphenyl)pyridin-3-yl]piperidine-4-carboxamide], < 10 nM.
Regarding `COc1ccccc1-c1ccc(C2(C(=O)NC[C@H]3COCCN3C)CCN(c3ccc(C(F)(F)F)cc3C#N)CC2)cn1` [Compound 1-328, 1-[2-cyano-4-(trifluoromethyl)phenyl]-4-[6-(2-methoxyphenyl)pyridin-3-yl]-N-{[(3S)-4-methylmorpholin-3-yl]methyl}piperidine-4-carboxamide], the Ki fell in the range of 10 to 100 nM.
In the case of `CN1CC(NC(=O)C2(c3ccc(-c4cccn4C)nc3)CCN(c3ccc(C(F)(F)F)cc3C#N)CC2)C1` [Compound 1-219, 1-[2-cyano-4-(trifluoromethyl)phenyl]-4-[6-(1-methyl-1H-pyrrol-2-yl)pyridin-3-yl]-N-(1-methylazetidin-3-yl)piperidine-4-carboxamide] it was < 10 nM.
As for `CC(=O)c1sccc1-c1ccc(C2(C(=O)N[C@H]3CCN(C)C3)CCN(c3ccc(C(F)(F)F)cc3C#N)CC2)cn1` [Compound 1-146, 4-[6-(2-acetylthiophen-3-yl)pyridin-3-yl]-1-[2-cyano-4-(trifluoromethyl)phenyl]-N-[(3S)-1-methylpyrrolidin-3-yl]piperidine-4-carboxamide], the Ki is < 10 nM.

The values above are taken from patent US12492181B2, “Gem-disubstituted piperidine melanocortin subtype-2 receptor (MC2R) antagonists and uses thereof” (Crinetics Pharmaceuticals, Inc., priority 2019, dated 2025).
